From US20250189532A1, “1,6-DIYNE COMPOUND, ITS PREPARATION METHOD, AND PRODUCTS OBTAINED USING 1,6-DIYNE COMPOUND AS RAW MATERIAL AND THEIR APPLICATIONS” (Fujian Institute of Research on the Structure of Matter, …, priority 2022, published 2025)

Experiments:
Format in all cases: cell-based
respiratory chain [1] = test: Cell silencing experiment 2: cytc-436 siRNA, live cell imaging with MP-1
Procedure: The cells are cultured in the imaging culture dish for 6 h, and then treated with cytc-436 (designed silent siRNA) or non-targeting RNA for a certain period of time, and then live cell imaging is performed under a confocal laser scanning microscope. After 6 hours of ctyc-436 treatment, Hoechst 33342 and MTG staining are good, but about 5% of the cells could not be labeled by MP-1. In contrast, the staining effect of MP-1 in the control group using non-targeting RNA is still good.

respiratory chain [2] = test: Cell silencing experiment 1: cytc-290 siRNA, live cell imaging with MP-1
Procedure: Cells are cultured in imaging culture dishes for 6 h and then treated with cytc-290 (designed silent siRNA) or nontargeting RNA. After a certain period of action, live cell imaging is performed under a confocal laser scanning microscope. After 12 hours of ctyc-290 treatment, Hoechst 33342 and MTG staining are good, but about 10% of the cells could not be labeled by MP-1. About 30% of the cells could not be labeled by MP-1 after 18 hours of treatment with ctyc-290. As shown in FIGS. 8A-8E, in contrast, the staining effect of MP-1 in the control group using non-targeted RNA is still good.

[3] = test system: L929 cells (mouse fibroblasts); test: Fluorescent labeling of L292/L929 cells by IM probes (confocal imaging); details: 30 minutes in the dark
Procedure: Cell line: L929 cells (mouse fibroblasts).
Cell culture: Cells are cultured in a CO2 incubator (37° C., 5% CO2) with DMEM medium (penicillin (100 U/mL) and streptomycin (100 μg/mL)).
(§1) Cell imaging experiment: Cells are cultured on 15 mm grade bottom cell culture dishes. Before labeling the cells with the probe, the culture medium is removed, and the cells are washed twice with Hank's buffer solution to remove the remaining culture medium. Then, 200 μL of probe IM-1 (10 μM) is added to the culture dish, and the cells are incubated in the dark for 30 minutes. The cells are washed twice with Hank's buffer solution to remove any remaining probe, and then 1 mL of Hank's solution is added to the culture dish. The cells are observed under a laser confocal microscope with a 100× objective. The excitation wavelength is 543 nm, and the emission wavelength is 550-600 nm.
as §1, with “IM-2 (5” for “IM-1 (10”
as §1, with “IM-3 (2” for “IM-1 (10”, “The cells are observed under a laser confocal microscope with a 100× objective. The excitation wavelength is 543 nm, and the emission wavelength is 550-600 nm.” left out

[4] = after 6 hours of cytc-436 treatment
[5] = after 12 hours of cytc-290 treatment

C#CCN(C(C#Cc1ccccc1)c1ccccc1)S(=O)(=O)c1ccccc1 (stereo not shown) [PA-1]
cells that could not be labeled by MP-1 (respiratory chain [1]; [4]): about 5% | staining effect in control group (respiratory chain [1]; control group using non-targeting RNA): still good | cells that could not be labeled by MP-1 (respiratory chain [2]; [5]): about 10% | cells that could not be labeled by MP-1 (respiratory chain [2]; after 18 hours of cytc-290 treatment): About 30% | staining effect in control group (respiratory chain [2]; control group using non-targeted RNA): still good

CCCCCCCCCCCCCOc1ccc(C2=NCc3c2cc2ccc(Cl)cc2c3-c2ccccc2)cc1 [IM-2]
organelles fluorescently labelled by the probe ([3]; probe 5 μM, excitation 543 nm, emission 550-600 nm): labels the lysosomes and lysosomal autolysosomes in the cells

c1ccc(C2=NCc3cc4ccccc4cc32)cc1 [IM-1]
organelles fluorescently labelled by the probe ([3]; probe 10 μM, excitation 543 nm, emission 550-600 nm): labels the lysosomes and lysosomal autolysosomes in the cells

CCCCCCCCCCCCCOc1ccc(C2=NCc3c2cc2ccc(Cl)cc2c3-c2ccccc2)cc1 [IM-3]
organelles fluorescently labelled by the probe ([3]; probe 2 μM, excitation 488 nm, emission 600-650 nm): labels the lysosomes and lysosomal autolysosomes in the cells

CCOc1ccc(-c2nc3ccc(-c4nc5ccc(N6CCN(C)CC6)cc5[nH]4)cc3[nH]2)cc1 [Hoechst 33342, reference compound]
staining (respiratory chain [1]; [4]): good | staining (respiratory chain [2]; [5]): good
